# Assays:
# [1] = system: T2 cells loaded with bacterial peptide or human counterpart peptide; assay: Cytotoxic assay of peptide-specific CD8+ T cells against peptide-loaded T2 cells (flow cytometry); type: cell-based
# From the text: CD8+ T cells expanded per above were used to perform cytotoxic assays in presence of different ratios of target and effector cells to assess their cytotoxic capacity, using flow cytometry readout. Target cells were T2 cell lines loaded with bacterial peptide or human counterpart peptide. Negative control was T2 cells unloaded and T2 cells loaded with irrelevant peptide. […] More importantly, CD22-B1, CD37B1, TNFRSF13C-B1 and MS4A1-B4-specific human T cells clones expanded in vitro were able to kill T2 cells loaded with the human TNFR13C (BAFF-R) or MS4A1 (CD20) peptide when cross-reactivity is observed with the staining (FIG. 17).
# [2] = system: HLA-A2 HHD-DR3 humanized mice; assay: ELISPOT-IFNγ on splenocytes of vaccinated HLA-A2 HHD-DR3 transgenic mice; type: in vivo, mouse
# From the text: (§1) Briefly, HLA-A2 HHD-DR1 humanized mice (C57BL/6JB2mtm1UncIAb-/-Tg(HLA-DRA, HLA-DRB1*0101)#GjhTg(HLA-A/H2-D/B2M)1Bpe) or HHD-DR3 humanized mice (C57BL/6JB2mtm1UncIAb-/-Tg(HLA-DRA,HLA-DRB1*0301)#GjhTg(HLA-A/H2-D/B2M)1Bpe) were assigned randomly (based on mouse sex and age) to experimental groups, wherein each group was immunized with a specific vaccination peptide (vacc-pAg) combined to a common helper peptide (h-pAg UCP2; sequence: […]; SEQ ID NO: 475; for HHD DR1 mice or h-pAg DR3; sequence […]; SEQ ID n° 473; for HHD DR3 mice) (as outlined in Table 4 below).
# (§2) The peptides were provided as follows: • vacc-pAg: CD22-B1, CD19-B1, CD19-B2, CD37-B1, TNFRSF13C-B1 and MS4A1-B4 all produced and provided at a 4 mg/ml (4 mM) concentration; • h-pAg: DR3 or UCP2 re-suspended in pure distilled water at a 10 mg/mL concentration
# (§3) The peptide formulation to be injected (emulsion) was prepared freshly on each day of injection and for each group. A mix for 10 animals was prepared using 2 mL luer lock syringes (460670 IV, B BRAUN) and luer connectors (Cole-Parmer, 45502-22): 500 μL of peptide mixture in syringe 1 was emulsified with 500 μL of IFA contained in syringe 2, at high speed as fast as possible until forming a thick (white foam) emulsion. Each emulsion was prepared in excess to compensate for the dead volumes at injection.
# (§4) The animals were immunized on day 0 (do) with a prime injection, and on d14 with a boost injection. Each mouse was injected s.c. at tail base with 100 μL of an oil-based emulsion that contained: • 60nMole of vacc-pAg; 105nMole of UCP2 helper peptide (for HHD-DR1 mice) or 65nMole of DR3 helper peptide (for HHD-DR3 mice) • 10 μL of PBS to reach a total volume of 50 μL (per mouse); • Incomplete Freund's Adjuvant (IFA) added at 1:1 (v:v) ratio (50 μL per mouse). A.2 Analysis
# (§5) Seven days after the boost injection (i.e. on d21), the animals were euthanized and the spleen was harvested. Splenocytes were prepared by mechanical disruption of the organ followed by 70 μm-filtering and Ficoll density gradient purification.
# (§6) The cell suspensions were further used in an ELISPOT-IFNγ assay (Table 5). The cells were cultured in 200 μL of complete T cell medium. Experimental conditions (duplicates) were as follow: 2×10^5 total cells per well when cultured in presence of various pAg (10 μM) or medium-only; and 2×10^4 total cells when cultured in presence of CD3/CD28-loaded bead particles (T cell Activation/Expansion kit, 130-093-627, Miltenyi) (bead-to-cell ratio of 1:1). The cultures were assessed for their capacity to secrete IFNγ (Diaclone Kit Murine IFNγ ELISpot, 862.031-005PC), following the manufacturer's instructions (˜16-18 h incubation time before performing the assay). The peptides used for restimulation are described in Table 5.
# (§7) Spots were counted on a CTL ELISpot reader. Data plotting and statistical analysis were performed with the Prism-5 software (GraphPad Software Inc.).
# (§8) The data were provided as a number of spots per 1·10^6 total T cells. The individual average values (obtained from the triplicates) were next used to plot the group average values. Statistical analysis for comparison (to the medium condition) were performed using unpaired non-parametric test (Mann Whitney) (**: p<0.01; *: p<0.05).
# [3] = system: HLA-A2 HHD-DR1 humanized mice; assay: ELISPOT-IFNγ on splenocytes of vaccinated HLA-A2 HHD-DR1 transgenic mice; type: in vivo, mouse
# From the text: as §1, §2, §3, §4, §5, §6, §7, §8
sequence,measurement,setting,value
YIFEHPELL (YIFEHPETA) [CD22-B1],killing of T2 cells loaded with the bacteria peptide by peptide-specific human T cell clones,"[1]; clones expanded in vitro, FIG. 18",capacity to kill
same,killing of T2 cells loaded with the human TNFR13C (BAFF-R) or MS4A1 (CD20) peptide by peptide-specific human T cell clones,[1]; when cross-reactivity is observed with the staining (FIG. 17),able to kill
same,"immunogenicity (ELISPOT-IFNγ), FIGS. 11-13",[2]; HHD DR3 mice (printed as HHD DR1),confirmed
same,cross-reactivity of the T cells for the corresponding human peptides,[2]; summary statement for HHD DR3 and HHD DR1 mice,shown
same,cross-reactivity: T cell reaction after challenge with the human corresponding peptide,[3]; HHD-DR1 mice vaccinated with the bacterial peptide,react strongly
same,immunogenicity (T cell response in ELISPOT-IFNγ after vaccination),"[3]; HHD-DR1 mice, prime d0 and boost d14, splenocytes d21",significant T cell responses
